The test system of assay [1] is RS4;11 leukaemia tumour line. The experiment in a line: In vitro cytotoxicity, Microculture Tetrazolium Assay (MTT). It counts as cell-based. Conditions: Homo sapiens; RS4;11 cells, 48 hours exposure. As for the experimental part: The cytotoxicity studies were carried out on the RS4;11 leukaemia tumour line.
The cells are distributed onto microplates and exposed to the test compounds for 48 hours. The cell viability is then quantified by a colorimetric assay, the Microculture Tetrazolium Assay (Cancer Res., 1987, 47, 939-942).

Another assay has as its target Bcl-2 protein (histag-Bcl-2, UniProtKB P10415) (Homo sapiens (Human), UniProt P10415). The experiment in a line: Inhibition of Bcl-2 by the fluorescence polarisation technique. It counts as binding. The conditions noted are these: fluorescence polarisation test; method A, or method B where underlined (underlining not visible); read-out: IC50 (nM) Bcl-2 FP. An excerpt: Inhibition of Bcl-2 by the fluorescence polarisation technique

Counter-ions that a name gives are not always drawn.

Sequence of Bcl-2 protein (P10415 whole entry): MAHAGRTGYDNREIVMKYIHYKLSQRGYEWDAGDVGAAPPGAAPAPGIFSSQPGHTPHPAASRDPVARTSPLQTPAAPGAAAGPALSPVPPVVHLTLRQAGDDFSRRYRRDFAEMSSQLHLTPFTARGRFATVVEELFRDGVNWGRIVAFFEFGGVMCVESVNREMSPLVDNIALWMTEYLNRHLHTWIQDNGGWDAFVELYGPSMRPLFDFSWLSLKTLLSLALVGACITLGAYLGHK

The IC50 is the midpoint of a concentration-inhibition curve. Turning to `Cc1cc(C(=O)N(c2ccc(O)cc2)c2ccc3[nH]ccc3c2)cn1-c1cc(Br)ccc1C(=O)N1Cc2ccccc2C[C@H]1CN1CCN(C2CCC2)CC1` [Example 102, 1-(5-Bromo-2-{[(3S)-3-[(4-cyclobutylpiperazin-1-yl)methyl]-3,4-dihydroisoquinolin-2(1H)-yl]carbonyl}phenyl)-N-(4-hydroxyphenyl)-N-(1H-indol-5-yl)-5-methyl-1H-pyrrole-3-carboxamide], the figures for the IC50 (in assay [1]; at Bcl-2 protein) were 108 nM and 8.4 nM, respectively.
For `Cc1cc(C(=O)N(c2ccc(O)cc2)c2ccc(Cl)cc2)cn1-c1cc2c(cc1C(=O)N1Cc3ccccc3C[C@H]1CN1CCN(C)CC1)OCO2` [Example 85, N-(4-Chlorophenyl)-N-(4-hydroxyphenyl)-5-methyl-1-(6-{[(3S)-3-[(4-methylpiperazin-1-yl)methyl]-3,4-dihydroisoquinolin-2(1H)-yl]carbonyl}-1,3-benzodioxol-5-yl)-1H-pyrrole-3-carboxamide] the same measures were 129 nM and 3.7 nM.
For `Cc1cc(C(=O)N(c2ccc(O)cc2)c2ccc3c(ccn3C)c2)cn1-c1cc2c(cc1C(=O)N1Cc3ccccc3C[C@H]1CN1CCOCC1)OCO2` [Example 109, N-(4-Hydroxyphenyl)-5-methyl-N-(1-methyl-1H-indol-5-yl)-1-(6-{[(3S)-3-(morpholin-4-ylmethyl)-3,4-dihydroisoquinolin-2(1H)-yl]carbonyl}-1,3-benzodioxol-5-yl)-1H-pyrrole-3-carboxamide hydrochloride] the same measures were 116 nM and 4.4 nM.
For the compound `Cc1cc(C(=O)N(c2ccccc2)c2ccc(O)cc2)cn1-c1cccc(Cl)c1C(=O)N1Cc2ccccc2C[C@H]1CN(C)C` [Example 18, 1-(3-Chloro-2-{[(3S)-3-[(dimethylamino)methyl]-3,4-dihydroisoquinolin-2(1H)-yl]carbonyl}phenyl)-N-(4-hydroxyphenyl)-5-methyl-N-phenyl-1H-pyrrole-3-carboxamide], the IC50 turned out to be 1130 nM in assay [1] and 44.6 nM at Bcl-2 protein.
For `Cc1cc(C(=O)N(c2ccc(O)cc2)c2ccc3[nH]ccc3c2)cn1-c1cc(Br)ccc1C(=O)N1Cc2ccccc2C[C@H]1CN1CCCC1` [Example 104, 1-(5-Bromo-2-{[(3S)-3-(pyrrolidin-1-ylmethyl)-3,4-dihydroisoquinolin-2(1H)-yl]carbonyl}phenyl)-N-(4-hydroxyphenyl)-N-(1H-indol-5-yl)-5-methyl-1H-pyrrole-3-carboxamide] the same measures were 383 nM and 18.8 nM.
The corresponding values for `Cc1cc(C(=O)N(c2ccccc2)c2ccc(O)cc2)cn1-c1ccc(Br)cc1C(=O)N1Cc2ccccc2C[C@H]1CN1CCN(C)CC1` [Example 29, 1-(4-Bromo-2-{[(3S)-3-[(4-methylpiperazin-1-yl)methyl]-3,4-dihydroisoquinolin-2(1H)-yl]carbonyl}phenyl)-N-(4-hydroxyphenyl)-5-methyl-N-phenyl-1H-pyrrole-3-carboxamide] are 1010 nM and 44.6 nM.
The corresponding values for `CN1CCN(C[C@@H]2Cc3ccccc3CN2C(=O)c2cc(F)c(Cl)cc2-n2cc(C(=O)N(c3ccc(O)cc3)c3ccc4c(ccn4C)c3)c3ccccc32)CC1` [Example 78, 1-(5-Chloro-4-fluoro-2-{[(3S)-3-[(4-methylpiperazin-1-yl)methyl]-3,4-dihydroisoquinolin-2(1H)-yl]carbonyl}phenyl)-N-(4-hydroxyphenyl)-N-(1-methyl-1H-indol-5-yl)-1H-indole-3-carboxamide hydrochloride] are 81.4 nM and 3.7 nM.
On to `CN1CCN(C[C@@H]2Cc3ccccc3CN2C(=O)c2ccc(Br)cc2-n2cc(C(=O)N(c3ccc(O)cc3)c3ccc4c(ccn4C)c3)c3ccccc32)CC1` [Example 69, 1-(5-Bromo-2-{[(3S)-3-[(4-methylpiperazin-1-yl)methyl]-3,4-dihydroisoquinolin-2(1H)-yl]carbonyl}phenyl)-N-(4-hydroxyphenyl)-N-(1-methyl-1H-indol-5-yl)-1H-indole-3-carboxamide hydrochloride], for which the IC50 stood at 67.6 nM in assay [1] and 9 nM at Bcl-2 protein.

These data come from US9765056B2, “Indole and pyrrole compounds, a process for their preparation and pharmaceutical compositions containing them” (LES LABORATOIRES SERVIER, priority 2013, dated 2017).
